Experimental findings from ChEMBL document CHEMBL1201862, “PubChem BioAssay data set” (2004) are described below.

Among the test systems are A549; ACHN; HCT-15; SW-620; SNB-19; OVCAR-4; RXF 393; SNB-75; K562; A498; U-251; NCI-H226; 786-0; SK-MEL-5; HCC 2998; Malme-3M; UO-31.
Experiment in all cases: NCI tumour cell line growth inhibition, 48 h

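Tested at 5 concentrations; 48 h exposure; 96-well plates; endpoints linearly interpolated, else capped at highest concentration. GI50 is the concentration that inhibits growth by half.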 Active and inactive are the calls of the source. No stated cut-off is given here; in the data, active = GI50 up to about 1.1 µM and inactive = higher.

For `O=C(CC1C(=O)Nc2ccccc2S1(=O)=O)Nc1cc(Cl)ccc1Cl` (stereo unspecified), the GI50 with A549 was 16.7 µM (inactive); with ACHN, 17.2 µM (inactive); in the experiment on HCT-15, 11.5 µM; with SW-620, 19.4 µM (inactive); with SNB-19 it was 15.5 µM (inactive); with OVCAR-4, 16.8 µM (inactive). In addition, the GI50 with RXF 393 is 15.8 µM (inactive); in the experiment with SNB-75, 14.6 µM (inactive); in the experiment with K562, 13.9 µM (inactive); in the experiment with A498, 15.8 µM (inactive); in the experiment on U-251, 10 µM (inactive); in the experiment with NCI-H226 it was 14.8 µM (inactive). Also, the GI50 in the experiment with 786-0 is 8.55 µM (inactive); with SK-MEL-5 it was 13.5 µM (inactive); in the experiment with HCC 2998, 20.5 µM (inactive); in the experiment on Malme-3M, 17.9 µM (inactive); in the experiment on UO-31 it was 15.6 µM (inactive).

For `C=C1C(=O)C23C(CC(OC(C)=O)C1[C@@H]2OC(C)=O)C1(C)C(OC(C)=O)CCC(C)(C)C1C[C@@H]3OC(C)=O` (stereo partly specified), the GI50 with A549 was 1.68 µM (inactive); in the experiment on ACHN it was 1.56 µM (inactive); in the experiment with HCT-15, 1.23 µM; with SW-620, 1.26 µM (inactive); in the experiment with SNB-19 it was 1.86 µM (inactive); with OVCAR-4 it was 1.91 µM (inactive). Further, the GI50 was 0.237 µM (active) in the experiment with RXF 393; 1.52 µM (inactive) in the experiment on SNB-75; 0.755 µM (active) in the experiment on K562; 1.95 µM (inactive) with A498; 1.55 µM (inactive) in the experiment on U-251; 1.69 µM (inactive) with NCI-H226. For the same molecule, the GI50 in the experiment on 786-0 is 1.43 µM (inactive); with SK-MEL-5 it was 1.84 µM (inactive); with HCC 2998, 1.84 µM (inactive); in the experiment with Malme-3M it was 1.55 µM (inactive); with UO-31, 1.8 µM (inactive).

Regarding `CCOC(=O)NC(=O)c1cn(C(CC)COC(=O)NCCCCCCNC(=O)OCC(CC)n2cc(C(=O)NC(=O)OCC)c(=O)[nH]c2=O)c(=O)[nH]c1=O` (stereo unspecified), the GI50 was > 100 µM (inactive) with A549; > 100 µM (inactive) in the experiment on ACHN; more than 100 µM in the experiment with HCT-15; > 100 µM (inactive) in the experiment on SW-620; > 100 µM (inactive) in the experiment on SNB-19; > 100 µM (inactive) with OVCAR-4. Further, the GI50 in the experiment with RXF 393, with SNB-75, in the experiment with K562, in the experiment with A498, in the experiment on U-251 and in the experiment on NCI-H226 was > 100 µM (inactive) each time. Also, the GI50 with 786-0, in the experiment with SK-MEL-5, with HCC 2998, with Malme-3M and in the experiment on UO-31 was > 100 µM (inactive) throughout.

For `[O-][n+]1c(-c2ccccc2)oc2ccccc21`, the GI50 in the experiment on A549 is 4.6 µM (inactive); with ACHN it was 15 µM (inactive); in the experiment on HCT-15, 6.12 µM; with SW-620, 16.6 µM (inactive); with SNB-19, 24.7 µM (inactive); in the experiment with OVCAR-4, 24.5 µM (inactive). Besides, the GI50 with RXF 393 is 21.2 µM (inactive); with SNB-75, 16.7 µM (inactive); in the experiment with K562, 11.9 µM (inactive); in the experiment on A498, 17.9 µM (inactive); in the experiment on U-251 it was 18.9 µM (inactive); with NCI-H226, 30.8 µM (inactive). The GI50 in the experiment with 786-0 was 22.6 µM (inactive); with SK-MEL-5, 2.25 µM (inactive); in the experiment on HCC 2998 it was 19.1 µM (inactive); in the experiment on Malme-3M it was 13 µM (inactive); in the experiment with UO-31, 13.1 µM (inactive).

In the case of `CC(=O)Nc1ccccc1S(=O)(=O)c1ccccc1`, the GI50 in the experiment on A549 is > 100 µM (inactive); with ACHN, > 100 µM (inactive); in the experiment on HCT-15, more than 100 µM; in the experiment on SW-620 it was > 100 µM (inactive); in the experiment on SNB-19 it was > 100 µM (inactive); with OVCAR-4, > 100 µM (inactive). The GI50 in the experiment on RXF 393, with SNB-75, in the experiment on K562, in the experiment on A498, in the experiment on U-251 and in the experiment with NCI-H226 was > 100 µM (inactive) in each case. For the same molecule, the GI50 with 786-0, in the experiment with SK-MEL-5, in the experiment with HCC 2998, with Malme-3M and in the experiment with UO-31 was > 100 µM (inactive) throughout.

For `CCN(CC)CCNc1ccc2ncn3c4cc(O)ccc4c(=O)c1c23`, the GI50 with A549 is 3.31 µM (inactive); in the experiment on ACHN it was 1.61 µM (inactive); in the experiment with HCT-15 it was 3.65 µM; in the experiment with SW-620 it was 1.88 µM (inactive); with SNB-19, 3.9 µM (inactive); with OVCAR-4, 2.45 µM (inactive). Moreover, the GI50 in the experiment with RXF 393 is 0.536 µM (active); with SNB-75 it was 4.39 µM (inactive); with K562, 2.11 µM (inactive); in the experiment on A498, 4.86 µM (inactive); in the experiment with U-251 it was 1.53 µM (inactive); in the experiment with NCI-H226, 2.82 µM (inactive). The GI50 in the experiment on 786-0 was 2.48 µM (inactive); in the experiment on SK-MEL-5 it was 3.66 µM (inactive); with HCC 2998 it was 3.84 µM (inactive); in the experiment with Malme-3M it was 3.97 µM (inactive); in the experiment on UO-31 it was 5.71 µM (inactive).

Turning to `Fc1ccc2c(c1)cc1ccc3cccc4ccc2c1c34`, the GI50 in the experiment on A549, in the experiment with ACHN, in the experiment on SW-620, in the experiment with SNB-19, with OVCAR-4 and with RXF 393 was > 100 µM (inactive) in each case. Besides, the GI50 in the experiment on SNB-75, in the experiment on K562, with A498, in the experiment with U-251, in the experiment with NCI-H226 and in the experiment on 786-0 was > 100 µM (inactive) in each case. Besides, the GI50 in the experiment on SK-MEL-5, in the experiment on HCC 2998, in the experiment with Malme-3M and with UO-31 was > 100 µM (inactive) each time.

On to `c1cnc2c(c1)-n1cccc1C1(CCOCC1)NN2`, for which the GI50 is > 100 µM (inactive) in the experiment on A549; > 100 µM (inactive) in the experiment on ACHN; more than 100 µM in the experiment with HCT-15; > 100 µM (inactive) with SW-620; > 100 µM (inactive) in the experiment with SNB-19; > 100 µM (inactive) with OVCAR-4. For the same molecule, the GI50 in the experiment on RXF 393, with SNB-75, in the experiment on K562, with A498, with U-251 and with NCI-H226 was > 100 µM (inactive) each time. Further, the GI50 in the experiment on 786-0, in the experiment on SK-MEL-5, in the experiment with HCC 2998, in the experiment with Malme-3M and in the experiment with UO-31 was > 100 µM (inactive) in each case.

For the molecule `O=c1n(-c2ccccc2)c(=O)n2n1C1C=CC2C2C(C1)C2(Cl)Cl` (stereo unspecified), the GI50 in the experiment with A549 was > 100 µM (inactive); in the experiment on ACHN it was > 100 µM (inactive); in the experiment with HCT-15 it was more than 100 µM; in the experiment with SW-620 it was > 100 µM (inactive); in the experiment on SNB-19, > 100 µM (inactive); with OVCAR-4, > 100 µM (inactive). Besides, the GI50 in the experiment with RXF 393, in the experiment on SNB-75, in the experiment on K562, in the experiment on A498, with U-251 and with NCI-H226 was > 100 µM (inactive) each time. The GI50 in the experiment on 786-0, in the experiment on SK-MEL-5, with HCC 2998, with Malme-3M and in the experiment on UO-31 was > 100 µM (inactive) in each case.

Take `CN1C(=O)CC2(C)c3cc(O)cc(Br)c3N(C)C12` (stereo unspecified): the GI50 with A549 is > 100 µM (inactive); in the experiment with ACHN, > 100 µM (inactive); with HCT-15 it was more than 100 µM; in the experiment with SW-620, > 100 µM (inactive); with SNB-19 it was > 100 µM (inactive); in the experiment with OVCAR-4, > 10 µM (inactive). Besides, the GI50 in the experiment with RXF 393 is > 100 µM (inactive); with SNB-75, 30.8 µM (inactive); in the experiment with K562 it was > 100 µM (inactive); in the experiment on A498, > 100 µM (inactive); with U-251, > 100 µM (inactive); with NCI-H226, > 100 µM (inactive). For the same molecule, the GI50 is > 100 µM (inactive) in the experiment on 786-0; > 100 µM (inactive) in the experiment with SK-MEL-5; > 100 µM (inactive) in the experiment on HCC 2998; > 100 µM (inactive) with Malme-3M; 57.7 µM (inactive) with UO-31.

For `Cc1ccc(NC(=O)C2C(=O)N(c3ccc(C)cc3)C(=O)/C2=N\NC(N)=S)cc1` (stereo unspecified), the GI50 in the experiment with ACHN is > 100 µM (inactive); with HCT-15, more than 100 µM; with SW-620, > 100 µM (inactive); in the experiment with SNB-19, > 100 µM (inactive); in the experiment on OVCAR-4 it was > 100 µM (inactive); with RXF 393 it was > 100 µM (inactive). Further, the GI50 in the experiment on SNB-75, in the experiment with K562, with A498, in the experiment on U-251, in the experiment with NCI-H226 and in the experiment on 786-0 was > 100 µM (inactive) throughout. The GI50 in the experiment on SK-MEL-5, in the experiment with HCC 2998, with Malme-3M and in the experiment on UO-31 was > 100 µM (inactive) each time.

Consider `CCCCCCCCCCCCC(Br)C(=O)SCCNC(=O)CCNC(=O)[C@@H](O)C(C)(C)COP(=O)(O)OP(=O)(O)OCC1OC(n2cnc3c(N)ncnc32)C(O)C1OP(=O)(O)O` (stereo partly specified), for which the GI50 in the experiment on A549 is > 56.5 µM (inactive); in the experiment on ACHN, > 56.5 µM (inactive); in the experiment on HCT-15 it was more than 56.5 µM; in the experiment on SW-620, > 56.5 µM (inactive); in the experiment on SNB-19 it was > 56.5 µM (inactive); in the experiment on OVCAR-4, > 56.5 µM (inactive). Further, the GI50 was > 56.5 µM (inactive) in the experiment on RXF 393; > 56.5 µM (inactive) in the experiment on SNB-75; > 56.5 µM (inactive) with A498; 33.7 µM (inactive) with U-251; > 56.5 µM (inactive) in the experiment on NCI-H226; > 56.5 µM (inactive) in the experiment on 786-0. For the same molecule, the GI50 in the experiment with SK-MEL-5, in the experiment on HCC 2998, in the experiment on Malme-3M and in the experiment with UO-31 was > 56.5 µM (inactive) in each case.
